One data set concerns Mus musculus. As to the kind of experiment: Toxicity in ip dosed NMRI mouse assessed as clonic and tonic convulsions assessed as cunvulsive dose. The following applies: in vivo. It is filed as organism-based.
Data set [1] in a line: Toxicity in ip dosed NMRI mouse assessed as clonic and tonic convulsions. In kind it is organism-based. The following applies: in vivo.

For orientation: LD50 means the dose at which mortality reaches 50%. Turning to `C/C=C1\[C@@H]2C[C@H]3c4c(c5cc(O)ccc5n4[C@@H](C2)O[C@@H]1OC)CCN3C`, in the data set on Mus musculus, the Activity is 80 mg/kg. In data set [1], the LD50 worked out at 90 mg/kg. On the same counts, the results for `C/C=C1\[C@@H]2C[C@H]3c4c(c5cc(O)ccc5n4[C@@H](C2)O[C@H]1OC)CCN3C` are 84 mg/kg and 84 mg/kg.

For the compound `C/C=C(/C=O)[C@H]1C[C@H](OC)n2c3c(c4cc(O)ccc42)CCN(C)[C@H]3C1`, the Activity in the data set on Mus musculus amounted to 75 mg/kg. The LD50 in data set [1] was found to be 75 mg/kg. With `C/C=C(/C=O)[C@@H]1C[C@H]2c3c(c4ccccc4n3[C@@H](O)C1)CCN2C` [AKAGERINE], the Activity with Mus musculus came out at 50 mg/kg.

With `C/C=C(/C=O)[C@H]1C[C@H](OC)n2c3c(c4ccccc42)CCN(C)[C@H]3C1`, the Activity in the data set with Mus musculus came out at 45.3 mg/kg.

For the origin of these results see ChEMBL document CHEMBL1151337, “New tertiary alkaloids of Strychnos decussata” (J Nat Prod, 1980).
